Measured values reported in US9833497B2, “Human originated EGF domain proteins and use of the same” (CHENGDU SOURCEBIO LIMITED-LIABILITY COMPANY, priority 2013, dated 2017).

Experiments:
Format in all cases: cell-based
[1] = tested on: Moraxella catarrhalis; experiment: MIC against Gram-negative bacteria: Moraxella catarrhalis
In short: (§1)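 Inocula prepared by growing LB cultures at 37° C to 0.5 McFarland, centrifuging at 4000×g, and resuspending in fresh medium. Final density 5×10^5 CFU/mL per well with two-fold dilutions of purified EGF domain protein; shaking incubation at 37° C.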

[2] = tested on: Aeromonas hydrophila; experiment: MIC against Gram-negative bacteria: Aeromonas hydrophila
In short: as §1

[3] = tested on: Pseudomonas aeruginosa; experiment: MIC against Gram-negative bacteria: Pseudomonas aeruginosa
In short: as §1

[4] = tested on: Enterobacter cloacae; experiment: MIC against Gram-negative bacteria: Enterobacter cloacae
In short: as §1

[5] = tested on: Citrobacter diversus; experiment: MIC against Gram-negative bacteria: Citrobacter diversus
In short: as §1

[6] = tested on: Klebsiella pneumonia; experiment: MIC against Gram-negative bacteria: Klebsiella pneumonia
In short: as §1

[7] = tested on: Proteus vulgaris; experiment: MIC against Gram-negative bacteria: Proteus vulgaris
In short: as §1

[8] = tested on: Proteus mirabilis; experiment: MIC against Gram-negative bacteria: Proteus mirabilis
In short: as §1

[9] = tested on: E. coli BL21; experiment: MIC against Gram-negative bacteria: E. coli BL21
In short: as §1

[10] = tested on: E. coli DH5α; experiment: Antibacterial activity: MIC and growth curve against E. coli DH5α in 96-well plate; details: minimal inhibitory concentration against E. coli DH5α; 96-well plate, 5×10^5 CFU/mL, 37° C., judged after 8 h
In short: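 MIC taken as lowest protein level with no bacterial growth, tracked by A600 every 30 min during 37 °C, 175 rpm culture. Two-fold protein series 50-12.5 μg/mL final, triplicate wells, against 5×10^5 CFU/mL of LB-washed mid-log cells.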

[11] = tested on: Serratia marcescens; experiment: MIC against Gram-negative bacteria: Serratia marcescens
In short: as §1

[12] = Moraxella catarrhalis, 96-well plate, 5×10^5 CFU/mL, 37° C., 10 h
[13] = Aeromonas hydrophila, 96-well plate, 5×10^5 CFU/mL, 37° C., 10 h
[14] = Pseudomonas aeruginosa, 96-well plate, 5×10^5 CFU/mL, 37° C., 10 h
[15] = Enterobacter cloacae, 96-well plate, 5×10^5 CFU/mL, 37° C., 10 h
[16] = Citrobacter diversus, 96-well plate, 5×10^5 CFU/mL, 37° C., 10 h
[17] = Klebsiella pneumonia, 96-well plate, 5×10^5 CFU/mL, 37° C., 10 h
[18] = Proteus vulgaris, 96-well plate, 5×10^5 CFU/mL, 37° C., 10 h
[19] = Proteus mirabilis, 96-well plate, 5×10^5 CFU/mL, 37° C., 10 h
[20] = E. coli BL21, 96-well plate, 5×10^5 CFU/mL, 37° C., 10 h
[21] = Serratia marcescens, 96-well plate, 5×10^5 CFU/mL, 37° C., 10 h
[22] = 96-well plate, 5×10^5 CFU/mL, 37° C., 10 h
[23] = Moraxella catarrhalis, 5×10^5 CFU/mL, 10 h cultivation at 37° C.
[24] = Aeromonas hydrophila, 5×10^5 CFU/mL, 10 h cultivation at 37° C.
[25] = Pseudomonas aeruginosa, 5×10^5 CFU/mL, 10 h cultivation at 37° C.
[26] = Enterobacter cloacae, 5×10^5 CFU/mL, 10 h cultivation at 37° C.
[27] = Citrobacter diversus, 5×10^5 CFU/mL, 10 h cultivation at 37° C.
[28] = Klebsiella pneumonia, 5×10^5 CFU/mL, 10 h cultivation at 37° C.
[29] = Proteus vulgaris, 5×10^5 CFU/mL, 10 h cultivation at 37° C.
[30] = Proteus mirabilis, 5×10^5 CFU/mL, 10 h cultivation at 37° C.
[31] = E. coli BL21, 5×10^5 CFU/mL, 10 h cultivation at 37° C.
[32] = Serratia marcescens, 5×10^5 CFU/mL, 10 h cultivation at 37° C.

Substance: PRT90 (CDCYPVGSTSRSCAPHSGQCPCRPGALGRQCNSCDSPFAEVTASGCRV; listed as Homo sapiens)
- MIC (μg/mL) M. catarrhalis [1, 12]: 12.5 µg/mL
- MIC (μg/mL) A. hydrophila [2, 13]: 12.5 µg/mL
- MIC (μg/mL) P. aeruginosa [3, 14]: 12.5 µg/mL
- MIC (μg/mL) E. cloacae [4, 15]: 12.5 µg/mL
- MIC (μg/mL) C. diversus [5, 16]: 25 µg/mL
- MIC (μg/mL) K. pneumonia [6, 17]: 12.5 µg/mL
- MIC (μg/mL) P. vulgaris [7, 18]: 12.5 µg/mL
- MIC (μg/mL) P. mirabilis [8, 19]: 25 µg/mL
- MIC (μg/mL) E. coli BL21 [9, 20]: 12.5 µg/mL
- MIC [10]: 50 µg/mL
- MIC (μg/mL) S. marcescens [11, 21]: 12.5 µg/mL

Substance: PRT109 (ASQACRTNPCLHGGRCLEVEGHRLCHCPVGYTGAFCD; listed as Homo sapiens)
- MIC (μg/mL) M. catarrhalis [1, 12]: 25 µg/mL
- MIC (μg/mL) A. hydrophila [2, 13]: 12.5 µg/mL
- MIC (μg/mL) P. aeruginosa [3, 14]: 12.5 µg/mL
- MIC (μg/mL) E. cloacae [4, 15]: 12.5 µg/mL
- MIC (μg/mL) C. diversus [5, 16]: 12.5 µg/mL
- MIC (μg/mL) K. pneumonia [6, 17]: 12.5 µg/mL
- MIC (μg/mL) P. vulgaris [7, 18]: 25 µg/mL
- MIC (μg/mL) P. mirabilis [8, 19]: 12.5 µg/mL
- MIC (μg/mL) E. coli BL21 [9, 20]: 12.5 µg/mL
- MIC [10]: 12.5 µg/mL
- MIC (μg/mL) S. marcescens [11, 21]: 50 µg/mL

Substance: PRT725 (VPNLCKQICSHLCLLRPGGYSCACPQGSSFIEGSTTECD; listed as Homo sapiens)
- MIC M. catarrhalis [1, 22]: 25 µg/mL
- MIC A. hydrophila [2, 22]: 25 µg/mL
- MIC P. aeruginosa [3, 22]: 25 µg/mL
- MIC E. cloacae [4, 22]: 12.5 µg/mL
- MIC C. diversus [5, 22]: 50 µg/mL
- MIC K. pneumonia [6, 22]: 50 µg/mL
- MIC P. vulgaris [7, 22]: 50 µg/mL
- MIC P. mirabilis [8, 22]: 12.5 µg/mL
- MIC E. coli BL21 [9, 22]: 12.5 µg/mL
- MIC [10]: 25 µg/mL
- MIC S. marcescens [11, 22]: 25 µg/mL

Substance: PRT1360 (NKPLCLNNCYNRGRCVENECVCDEGFTGEDCS; listed as Homo sapiens)
- MIC against M. catarrhalis [1, 23]: 50 µg/mL
- MIC against A. hydrophila [2, 24]: 50 µg/mL
- MIC against P. aeruginosa [3, 25]: 50 µg/mL
- MIC against E. cloacae [4, 26]: 12.5 µg/mL
- MIC against C. diversus [5, 27]: 12.5 µg/mL
- MIC against K. pneumonia [6, 28]: 25 µg/mL
- MIC against P. vulgaris [7, 29]: 25 µg/mL
- MIC against P. mirabilis [8, 30]: 12.5 µg/mL
- MIC against E. coli BL21 [9, 31]: 25 µg/mL
- MIC [10]: 12.5 µg/mL
- MIC against S. marcescens [11, 32]: 50 µg/mL

Substance: PRT981 (DINECRSGACHAAHTRDCLQDPGGGFRCLCHAGFSGPRCQ; listed as Homo sapiens)
- MIC ([1]; M. catarrhalis, 10 h cultivation at 37° C.): 25 µg/mL
- MIC ([2]; A. hydrophila, 10 h cultivation at 37° C.): 12.5 µg/mL
- MIC ([3]; P. aeruginosa, 10 h cultivation at 37° C.): 50 µg/mL
- MIC ([4]; E. cloacae, 10 h cultivation at 37° C.): 50 µg/mL
- MIC ([5]; C. diversus, 10 h cultivation at 37° C.): 25 µg/mL
- MIC ([6]; K. pneumonia, 10 h cultivation at 37° C.): 12.5 µg/mL
- MIC ([7]; P. vulgaris, 10 h cultivation at 37° C.): 50 µg/mL
- MIC ([8]; P. mirabilis, 10 h cultivation at 37° C.): 12.5 µg/mL
- MIC ([9]; E. coli BL21, 10 h cultivation at 37° C.): 12.5 µg/mL
- MIC [10]: 25 µg/mL
- MIC ([11]; S. marcescens, 10 h cultivation at 37° C.): 12.5 µg/mL

Substance: PRT1447 (GCGAGRWGPGCTKECPGCLHGGVCHDHDGECVCPPGFTGTRCE; listed as Homo sapiens)
- MIC against M. catarrhalis [1, 23]: 50 µg/mL
- MIC against A. hydrophila [2, 24]: 50 µg/mL
- MIC against P. aeruginosa [3, 25]: 12.5 µg/mL
- MIC against E. cloacae [4, 26]: 12.5 µg/mL
- MIC against C. diversus [5, 27]: 12.5 µg/mL
- MIC against K. pneumonia [6, 28]: 12.5 µg/mL
- MIC against P. vulgaris [7, 29]: 12.5 µg/mL
- MIC against P. mirabilis [8, 30]: 25 µg/mL
- MIC against E. coli BL21 [9, 31]: 25 µg/mL
- MIC [10]: 100 µg/mL
- MIC against S. marcescens [11, 32]: 25 µg/mL

Substance: PRT840 (GSARCGSGGPGSCPVPQECVPQDGAAGAGLCRCPQGWAGPHCR; listed as Homo sapiens)
- MIC (μg/mL) M. catarrhalis ([1]; M. catarrhalis, 10 h cultivation at 37° C., 5×10^5 CFU/mL): 25 µg/mL
- MIC (μg/mL) A. hydrophila ([2]; A. hydrophila, 10 h cultivation at 37° C., 5×10^5 CFU/mL): 25 µg/mL
- MIC (μg/mL) P. aeruginosa ([3]; P. aeruginosa, 10 h cultivation at 37° C., 5×10^5 CFU/mL): 25 µg/mL
- MIC (μg/mL) E. cloacae ([4]; E. cloacae, 10 h cultivation at 37° C., 5×10^5 CFU/mL): 12.5 µg/mL
- MIC (μg/mL) C. diversus ([5]; C. diversus, 10 h cultivation at 37° C., 5×10^5 CFU/mL): 12.5 µg/mL
- MIC (μg/mL) K. pneumonia ([6]; K. pneumonia, 10 h cultivation at 37° C., 5×10^5 CFU/mL): 25 µg/mL
- MIC (μg/mL) P. vulgaris ([7]; P. vulgaris, 10 h cultivation at 37° C., 5×10^5 CFU/mL): 25 µg/mL
- MIC (μg/mL) P. mirabilis ([8]; P. mirabilis, 10 h cultivation at 37° C., 5×10^5 CFU/mL): 12.5 µg/mL
- MIC (μg/mL) E. coli BL21 ([9]; E. coli BL21, 10 h cultivation at 37° C., 5×10^5 CFU/mL): 12.5 µg/mL
- MIC [10]: 25 µg/mL
- MIC (μg/mL) S. marcescens ([11]; S. marcescens, 10 h cultivation at 37° C., 5×10^5 CFU/mL): 25 µg/mL
